# Measured values taken from paper PMC6459903, “The enzymes OSC1 and CYP716A263 produce a high variety of triterpenoids in the latex of Taraxacum koksaghyz” (Scientific Reports, 2019).
# How the values were obtained:
# Format in all cases: cell-based
# [1] = target: T1, TkLUP (Taraxacum kok-saghyz, UniProt A0A3B1EU92); test: transient expression in N. benthamiana leaves, GC-MS; settings: with Tkhmgrc1; endogenous 2,3-oxidosqualene; predominant product
# T1 construct: gene Lup; full-length cDNA; transient expression in Nicotiana benthamiana leaves
# T1 sequence (A0A3B1EU92 1-758): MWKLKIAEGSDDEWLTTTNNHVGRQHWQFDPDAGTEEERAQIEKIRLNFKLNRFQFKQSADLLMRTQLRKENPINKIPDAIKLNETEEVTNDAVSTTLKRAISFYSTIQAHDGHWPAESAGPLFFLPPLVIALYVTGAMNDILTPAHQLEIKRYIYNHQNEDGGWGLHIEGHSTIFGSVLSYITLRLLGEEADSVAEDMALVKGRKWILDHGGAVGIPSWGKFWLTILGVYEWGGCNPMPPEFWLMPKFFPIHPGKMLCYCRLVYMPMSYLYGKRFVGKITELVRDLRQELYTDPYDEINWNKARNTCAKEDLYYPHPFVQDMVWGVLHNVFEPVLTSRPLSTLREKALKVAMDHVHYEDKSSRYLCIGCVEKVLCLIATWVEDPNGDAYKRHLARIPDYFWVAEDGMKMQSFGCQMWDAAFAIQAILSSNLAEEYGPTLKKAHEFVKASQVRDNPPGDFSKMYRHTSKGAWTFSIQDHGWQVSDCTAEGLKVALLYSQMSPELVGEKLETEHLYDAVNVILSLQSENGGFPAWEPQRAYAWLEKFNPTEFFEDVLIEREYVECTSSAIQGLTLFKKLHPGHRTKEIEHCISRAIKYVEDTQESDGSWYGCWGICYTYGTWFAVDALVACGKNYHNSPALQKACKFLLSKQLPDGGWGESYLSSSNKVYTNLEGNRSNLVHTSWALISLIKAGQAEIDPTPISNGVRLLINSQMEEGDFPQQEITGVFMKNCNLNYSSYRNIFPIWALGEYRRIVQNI
# [2] = target: T2, CYP716A263 (Taraxacum kok-saghyz, UniProt A0A3S5GS06); test: co-expression in N. benthamiana leaves, GC-MS; settings: C-3 oxidation to lupenone; lupeol formed in situ by co-expressed TkLUP with Tkhmgrc1
# T2 construct: full-length 473 residues (1,422 bp), from latex cDNA; transient expression in Nicotiana benthamiana leaves with host reductase
# T2 sequence (A0A3S5GS06 1-473): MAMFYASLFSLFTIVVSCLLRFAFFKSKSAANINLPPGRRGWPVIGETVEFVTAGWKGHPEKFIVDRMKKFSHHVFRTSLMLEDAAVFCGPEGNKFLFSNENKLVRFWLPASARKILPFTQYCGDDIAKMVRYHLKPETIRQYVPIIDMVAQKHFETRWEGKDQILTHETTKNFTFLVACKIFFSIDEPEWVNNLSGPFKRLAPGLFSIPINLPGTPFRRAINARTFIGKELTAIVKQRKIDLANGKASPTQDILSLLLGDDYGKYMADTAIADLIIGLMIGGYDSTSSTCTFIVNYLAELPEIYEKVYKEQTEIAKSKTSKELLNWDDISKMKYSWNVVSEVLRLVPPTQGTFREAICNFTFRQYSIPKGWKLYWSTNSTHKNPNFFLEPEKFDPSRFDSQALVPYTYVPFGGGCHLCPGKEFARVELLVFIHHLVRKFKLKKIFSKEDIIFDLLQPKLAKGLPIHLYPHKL
# [3] = target: T3, CYP716A263/AtR2 (Taraxacum kok-saghyz, UniProt A0A3S5GS06); test: co-expression in S. cerevisiae, GC-MS; settings: C-3 oxidation to taraxasterone; taraxasterol formed in situ by co-expressed TkLUPN-TkOSC1C; AtR2 reductase
# T3 construct: full-length P450, 473 residues, co-expressed with Arabidopsis thaliana reductase AtR2 in S. cerevisiae CEN.PK2-1C; with NADPH--cytochrome P450 reductase 2 (Arabidopsis thaliana)
# T3 sequence (A0A3S5GS06 1-473): as above
# T3 sequence (Q9SUM3 whole entry partner): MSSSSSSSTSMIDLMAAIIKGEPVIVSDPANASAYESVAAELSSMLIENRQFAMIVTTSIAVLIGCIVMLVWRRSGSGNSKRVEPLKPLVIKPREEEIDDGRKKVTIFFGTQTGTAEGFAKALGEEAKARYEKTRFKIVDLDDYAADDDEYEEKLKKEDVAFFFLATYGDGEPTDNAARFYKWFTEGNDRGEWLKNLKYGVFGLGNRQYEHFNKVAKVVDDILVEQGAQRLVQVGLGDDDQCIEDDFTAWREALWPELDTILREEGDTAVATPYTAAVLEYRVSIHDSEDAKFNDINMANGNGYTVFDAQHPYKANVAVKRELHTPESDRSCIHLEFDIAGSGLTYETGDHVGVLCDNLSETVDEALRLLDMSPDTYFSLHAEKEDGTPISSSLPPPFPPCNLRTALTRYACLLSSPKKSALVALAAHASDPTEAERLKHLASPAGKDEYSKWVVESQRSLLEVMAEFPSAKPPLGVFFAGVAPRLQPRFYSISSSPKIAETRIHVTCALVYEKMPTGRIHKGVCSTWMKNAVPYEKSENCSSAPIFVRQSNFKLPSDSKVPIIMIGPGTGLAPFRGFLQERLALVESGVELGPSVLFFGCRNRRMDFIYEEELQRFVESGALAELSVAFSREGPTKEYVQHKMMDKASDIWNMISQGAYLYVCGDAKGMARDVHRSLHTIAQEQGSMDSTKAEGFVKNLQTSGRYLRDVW
# [4] = target: T4, TkOSC6 (Taraxacum kok-saghyz, UniProt A0A3S7RZ84); test: expression in S. cerevisiae, GC-MS; settings: endogenous 2,3-oxidosqualene as substrate; erg7 repressed by CuSO4; main product
# T4 construct: gene OSC6; unmodified full-length protein; expressed in S. cerevisiae CEN.PK2-1C and N. benthamiana
# T4 sequence (A0A3S7RZ84 1-758): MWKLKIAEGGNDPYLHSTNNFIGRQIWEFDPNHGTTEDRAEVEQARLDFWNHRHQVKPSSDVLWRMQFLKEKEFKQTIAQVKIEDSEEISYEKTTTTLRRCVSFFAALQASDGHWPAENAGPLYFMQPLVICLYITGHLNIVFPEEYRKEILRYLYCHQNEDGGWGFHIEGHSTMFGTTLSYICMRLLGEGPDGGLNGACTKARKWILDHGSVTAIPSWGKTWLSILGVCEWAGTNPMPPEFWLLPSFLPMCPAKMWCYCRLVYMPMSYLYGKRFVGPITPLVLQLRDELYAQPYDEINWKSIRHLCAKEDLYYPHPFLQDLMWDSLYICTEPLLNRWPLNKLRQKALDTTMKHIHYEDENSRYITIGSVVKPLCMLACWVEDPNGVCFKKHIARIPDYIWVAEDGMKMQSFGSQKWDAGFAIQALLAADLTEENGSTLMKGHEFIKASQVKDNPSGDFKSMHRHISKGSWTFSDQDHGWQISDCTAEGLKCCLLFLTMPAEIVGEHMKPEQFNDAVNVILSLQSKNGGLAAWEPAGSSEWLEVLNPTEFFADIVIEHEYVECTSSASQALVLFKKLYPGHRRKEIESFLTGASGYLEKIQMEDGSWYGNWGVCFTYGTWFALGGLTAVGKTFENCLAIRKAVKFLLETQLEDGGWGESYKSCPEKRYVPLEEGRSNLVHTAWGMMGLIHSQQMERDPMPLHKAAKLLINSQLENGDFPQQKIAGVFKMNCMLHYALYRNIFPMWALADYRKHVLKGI
smiles,measurement,setting,value
C=C(C)[C@@H]1CC[C@]2(C)CC[C@]3(C)[C@H](CC[C@@H]4[C@@]5(C)CC[C@H](O)C(C)(C)[C@@H]5CC[C@]43C)[C@@H]12 [lupeol],"transient expression in N. benthamiana leaves, GC-MS",[1],TkLUP in combination with Tkhmgrc1 led to the predominant production of lupeol
same,"co-expression in N. benthamiana leaves, GC-MS",[2],CYP716A263 is capable of converting lupeol into lupenone and exhibits a C-3 oxidation activity
C=C1CC[C@]2(C)CC[C@]3(C)[C@H](CC[C@@H]4[C@@]5(C)CC[C@H](O)C(C)(C)[C@@H]5CC[C@]43C)[C@H]2[C@@H]1C [taraxasterol],"co-expression in S. cerevisiae, GC-MS",[3],"taraxasterol, as the most abundant product, was converted to taraxasterone"
CC1(C)CC[C@]2(C)CC[C@]3(C)C(=CC[C@@H]4[C@@]5(C)CC[C@H](O)C(C)(C)[C@@H]5CC[C@]43C)[C@@H]2C1 [β-amyrin],"expression in S. cerevisiae, GC-MS",[4],TkOSC6 expression in yeast led to the identification of β-amyrin as main product
